# Measurements from US9029557B2, “Labeled A4B2 ligands and methods therefor” (priority 2004, dated 2015).
# pKi: −log10 of the molar value. Like-named read-outs stand apart in the source and are kept apart here.
# Key:
# rat brain α4β2 receptors = target: T1, rat brain α4β2 receptors (Rattus norvegicus, UniProt P09483+P12390); test: Brain homogenate binding assay using 3H-cytisine; details: read-out: Binding affinity Ki for rat brain α4β2 receptors
# T1 construct: The brains from male Sprague-Dawley rats (n=4 per group) were extracted and frozen; from tissue; host or cells: rat brain (Sprague-Dawley)
# α4β2 receptor [1] = target: T2, α4β2 receptor (Rattus norvegicus, UniProt P09483+P12390); test: Displacement of 18F-nifene bound in rat brain slices; type: binding; set-up: The brains from male Sprague-Dawley rats (n=4 per group) were extracted and frozen; from tissue; host or cells: rat brain (Sprague-Dawley); details: 10 nM
# α4β2 receptor [2] = target: T2, α4β2 receptor; test: Autoradiography of 123I-niodene in rat brain sections; type: binding; set-up: The brains from male Sprague-Dawley rats (n=4 per group) were extracted and frozen; from tissue; host or cells: rat brain (Sprague-Dawley); details: low specific activity 123I-niodene, 5 nM
# α4β2 nAChRs [3] = target: T3, α4β2 nAChRs (Rattus norvegicus, UniProt P09483+P12390); details: rat PET, cerebellum as reference region
# α4β2 receptor sites = α4β2 receptor sites (Rattus norvegicus, UniProt P09483+P12390)
# Description: Coronal and horizontal brain slices ([…]) were obtained from male Sprague-Dawley rats. Sets of brain slices were preincubated in buffer (50 mmol/L Tris HCl containing 120 mmol/L NaCl, 5 mmol/L KCl, 2.5 mmol/L CaCl2, 1 mmol/L MgCl2, pH 7.4) for 10 min (26). […] Nonspecific binding was measured in the presence of […] (weighed as nicotine ditartarate). In some experiments, a lower concentration of nicotine (10 μmol/L) was also used. After incubation, slides were washed twice (1 min each) with ice-cold Tris HCl buffer, pH 7.4, followed by a quick rinse in cold deionized water. The slides were then air dried and apposed to phosphor screens overnight and read by the Cyclone Phosphor Imaging System (Packard Instruments Co).
# α4β2 receptor [4] = target: T2, α4β2 receptor; details: for % ID/g Blood / % ID/g Cerebellum / % ID/g Cortex / % ID/g Thalamus: i.v. 3.7 MBq
# Excerpt: The animals were allowed to recover from anesthesia and had free access to food and water. […] Thalamus, Ctx, cerebellum, and blood were isolated from each rat and placed in preweighed tubes and were counted for 18F radioactivity.
# α4β2 receptor [5] = system: α4β2 receptor
# Description: The male rhesus monkey (12 kg) was anesthetized using ketamine (10 mg/kg) and xylazine (0.5 mg/kg) and was subsequently maintained on 0.5%-1.5% isoflurane. Two intravenous catheters were placed, one on each arm, for purposes of administration of the radiopharmaceutical and for obtaining blood samples during the study. The head of the animal was placed in the gantry of an ECAT EXACT HR PET scanner and positioned in place with adhesive tape as described previously. A transmission scan using a 68Ge/68Ga rod source was acquired before administration of the radiopharmaceutical to correct for tissue attenuation of the coincident radiation.
# Data in the final form are expressed in units of the percentage injected dose per milliliter (% ID/mL) or kilobecquerels per milliliter (kBq/mL). […] Time-activity curves were obtained for all these regions. […] This MRI template of the rhesus (Macaca mulatta) brain is an average of 6 monkeys with T1-weighted MR scans. Postimage processing removed the skull and scalp from the template (courtesy of University of Wisconsin-Madison).
# α4β2 receptors [6] = target: T4, α4β2 receptors (Homo sapiens, UniProt P17787+P43681); set-up: host or cells: human brain in vivo (SPECT), work done elsewhere; details: human studies; cited from earlier work
# alpha4-beta2 receptors = alpha4-beta2 receptors (Rattus norvegicus, UniProt P09483+P12390); details: nicotine 60 μM, horizontal rat brain slices
# α3β2 sites = target: T5, α3β2 sites (Rattus norvegicus, UniProt P04757+P12390); test: In vitro binding affinity, inhibition of 125I-IEB in rat brain slices (autoradiography), α3β2 sites; details: 125I-IEB in presence of 200 nmol/L cytisine
# T5 construct: The brains from male Sprague-Dawley rats (n=4 per group) were extracted and frozen; from tissue; host or cells: rat brain slices (DLG, SuG, optic tract)
# Description: (§1) In vitro binding affinity of nifrolidine was measured in rat brain slices labeled with 125I-iodoepibatidine (125I-IEB) or 125I-α-bungarotoxin. The brains from male Sprague-Dawley rats (n=4 per group) were extracted and frozen in isopentane at […].
# (§2) Coronal sections (20-μm thick) were prepared from 4 brain levels on a cryostat at […]. […] Competition studies were performed by incubating alternate sections with 125IIEB in the absence or presence of cytisine (200 nmol/L) and nicotine (300 μmol/L) and various concentrations of nifrolidine (0-30 nmol/L). Slides were then rinsed twice for 10 min in ice-cold buffer, dipped briefly in ice-cold water, blown dry, and laid out for autoradiography along with 125I plastic standards of known radioactivity (FIG. 3). […]
# (§3) Autoradiograms were quantified with a computer-based image analysis system (MCID; Imaging Research) using calibrated standards of reference. A calibration curve of to optical density against radioligand concentration (fmol/mg tissue) was constructed using values of known radioactivity. Optical densities in discrete regions of the autoradiographic images were measured, and corresponding values of radioactivity were determined by interpolation from the calibration curve. Specific binding values in each region were determined by subtracting binding in the presence of excess inhibitor from total binding values. […]
# α3β4 sites = target: T6, α3β4 sites (Rattus norvegicus, UniProt P04757+P12392); test: In vitro binding affinity, inhibition of 125I-IEB in rat brain slices (autoradiography), α3β4 sites; details: 125I-IEB in presence of 200 nmol/L cytisine
# T6 construct: The brains from male Sprague-Dawley rats (n=4 per group) were extracted and frozen; from tissue; host or cells: rat brain slices (pineal, interpeduncular nucleus, medial habenula)
# Description: as §1, §2, §3
# α7 nAChRs = target: T7, α7 nAChRs (Rattus norvegicus, UniProt Q05941); test: 125I-α-bungarotoxin binding competition in rat brain slices; details: up to a concentration of 30 nmol/L
# T7 construct: The brains from male Sprague-Dawley rats (n=4 per group) were extracted and frozen; from tissue; host or cells: rat brain slices (VLG, SuG)
# Description: as §1, §2, §3
# α4β2 nAChRs [7] = target: T3, α4β2 nAChRs; test: In vitro binding affinity, inhibition of 125I-IEB in rat brain slices (autoradiography), α4β2 sites; set-up: from tissue; host or cells: brain of the living rat (PET); details: p-toluenesulfonate salt
# Description: as §1, §2, §3
# α4β2 receptors [8] = target: T4, α4β2 receptors; test: Affinity of Niofene; type: binding
# α4β2 nAChRs [9] = target: α4β2 nAChRs (Homo sapiens, UniProt P17787+P43681); details: comparison agents; cited from earlier work
# [10] = rhesus monkey PET, 155 MBq i.v.
# T2 sequence (P09483 31-630): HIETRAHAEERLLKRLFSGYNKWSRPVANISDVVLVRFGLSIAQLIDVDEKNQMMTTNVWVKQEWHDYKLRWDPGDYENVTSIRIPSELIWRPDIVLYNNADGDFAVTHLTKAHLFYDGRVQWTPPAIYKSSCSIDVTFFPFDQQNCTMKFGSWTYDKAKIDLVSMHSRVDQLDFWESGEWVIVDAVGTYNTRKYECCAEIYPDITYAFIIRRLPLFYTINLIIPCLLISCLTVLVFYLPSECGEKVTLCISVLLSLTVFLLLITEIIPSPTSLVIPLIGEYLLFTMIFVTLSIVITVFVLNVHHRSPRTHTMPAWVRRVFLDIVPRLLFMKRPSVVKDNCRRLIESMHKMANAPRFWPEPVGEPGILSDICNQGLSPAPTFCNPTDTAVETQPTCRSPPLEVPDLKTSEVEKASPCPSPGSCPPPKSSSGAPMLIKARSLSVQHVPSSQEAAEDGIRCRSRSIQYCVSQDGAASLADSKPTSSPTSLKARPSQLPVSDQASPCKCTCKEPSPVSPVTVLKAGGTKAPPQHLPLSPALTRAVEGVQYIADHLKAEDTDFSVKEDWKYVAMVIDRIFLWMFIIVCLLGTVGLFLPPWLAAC
# T2 sequence (P12390 25-500): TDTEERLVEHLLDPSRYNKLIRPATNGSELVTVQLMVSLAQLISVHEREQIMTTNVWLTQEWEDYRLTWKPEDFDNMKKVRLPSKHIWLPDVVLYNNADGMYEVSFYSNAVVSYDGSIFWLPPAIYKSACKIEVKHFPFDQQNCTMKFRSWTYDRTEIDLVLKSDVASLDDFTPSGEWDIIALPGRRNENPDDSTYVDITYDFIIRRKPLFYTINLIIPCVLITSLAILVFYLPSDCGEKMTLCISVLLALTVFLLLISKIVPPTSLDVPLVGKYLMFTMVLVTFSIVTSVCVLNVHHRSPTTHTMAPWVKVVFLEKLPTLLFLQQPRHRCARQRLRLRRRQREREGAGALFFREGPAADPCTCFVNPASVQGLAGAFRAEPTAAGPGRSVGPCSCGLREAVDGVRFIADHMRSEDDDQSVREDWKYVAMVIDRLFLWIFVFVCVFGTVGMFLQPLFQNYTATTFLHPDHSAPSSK
# T4 sequence (P43681 29-627 limits assumed): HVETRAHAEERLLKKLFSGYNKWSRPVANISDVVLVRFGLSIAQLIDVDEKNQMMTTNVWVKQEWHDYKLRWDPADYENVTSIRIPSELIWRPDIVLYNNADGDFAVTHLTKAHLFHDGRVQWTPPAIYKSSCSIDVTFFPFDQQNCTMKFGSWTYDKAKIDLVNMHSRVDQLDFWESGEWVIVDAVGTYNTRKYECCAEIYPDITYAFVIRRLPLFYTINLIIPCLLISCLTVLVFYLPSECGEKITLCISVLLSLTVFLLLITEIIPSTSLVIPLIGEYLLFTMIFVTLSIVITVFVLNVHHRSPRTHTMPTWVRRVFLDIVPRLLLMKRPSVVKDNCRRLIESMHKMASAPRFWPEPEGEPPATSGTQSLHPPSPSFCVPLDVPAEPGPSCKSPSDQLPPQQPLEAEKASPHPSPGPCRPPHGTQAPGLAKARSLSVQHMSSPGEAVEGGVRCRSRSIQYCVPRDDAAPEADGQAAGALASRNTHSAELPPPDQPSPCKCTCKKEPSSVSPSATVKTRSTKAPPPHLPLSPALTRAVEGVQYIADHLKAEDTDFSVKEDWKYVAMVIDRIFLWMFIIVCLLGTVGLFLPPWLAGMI
# T4 sequence (P17787 26-502): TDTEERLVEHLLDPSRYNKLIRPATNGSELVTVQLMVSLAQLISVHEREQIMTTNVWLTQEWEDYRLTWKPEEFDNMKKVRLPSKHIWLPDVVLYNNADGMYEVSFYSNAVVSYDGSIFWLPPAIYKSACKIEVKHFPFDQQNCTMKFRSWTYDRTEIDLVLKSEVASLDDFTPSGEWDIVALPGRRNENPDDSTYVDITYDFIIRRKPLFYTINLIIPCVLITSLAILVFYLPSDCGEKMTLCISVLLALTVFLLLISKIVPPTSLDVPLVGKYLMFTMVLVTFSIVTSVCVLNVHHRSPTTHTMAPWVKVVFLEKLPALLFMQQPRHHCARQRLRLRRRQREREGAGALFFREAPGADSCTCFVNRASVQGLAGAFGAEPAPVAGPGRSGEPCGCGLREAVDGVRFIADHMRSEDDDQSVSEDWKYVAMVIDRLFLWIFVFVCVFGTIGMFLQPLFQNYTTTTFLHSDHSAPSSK
# T7 sequence (Q05941 23-502): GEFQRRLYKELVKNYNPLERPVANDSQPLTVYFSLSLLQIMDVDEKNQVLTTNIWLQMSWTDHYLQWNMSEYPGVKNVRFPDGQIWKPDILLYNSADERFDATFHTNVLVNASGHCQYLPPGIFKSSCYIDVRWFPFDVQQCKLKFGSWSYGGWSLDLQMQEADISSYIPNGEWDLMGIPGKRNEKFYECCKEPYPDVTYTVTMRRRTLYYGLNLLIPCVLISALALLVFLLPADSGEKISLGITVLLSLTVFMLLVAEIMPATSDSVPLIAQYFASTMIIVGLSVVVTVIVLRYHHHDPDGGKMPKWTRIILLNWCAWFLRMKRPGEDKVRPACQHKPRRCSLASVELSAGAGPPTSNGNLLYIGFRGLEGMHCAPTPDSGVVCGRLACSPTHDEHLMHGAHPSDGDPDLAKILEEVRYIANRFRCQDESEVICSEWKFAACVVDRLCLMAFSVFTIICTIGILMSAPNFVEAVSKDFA
# T3 sequence (P09483 31-630): as the sequence (P09483 31-630) above
# T3 sequence (P12390 25-500): as the sequence (P12390 25-500) above
# Chain of α4β2 receptor sites (P09483 31-630): as the sequence (P09483 31-630) above
# Chain of α4β2 receptor sites (P12390 25-500): as the sequence (P12390 25-500) above
# Chain of α4β2 nAChRs (Homo sapiens, UniProt P17787+P43681) (P43681 29-627 limits assumed): as the sequence (P43681 29-627 limits assumed) above
# Chain of α4β2 nAChRs (Homo sapiens, UniProt P17787+P43681) (P17787 26-502): as the sequence (P17787 26-502) above
# T5 sequence (P04757 26-499): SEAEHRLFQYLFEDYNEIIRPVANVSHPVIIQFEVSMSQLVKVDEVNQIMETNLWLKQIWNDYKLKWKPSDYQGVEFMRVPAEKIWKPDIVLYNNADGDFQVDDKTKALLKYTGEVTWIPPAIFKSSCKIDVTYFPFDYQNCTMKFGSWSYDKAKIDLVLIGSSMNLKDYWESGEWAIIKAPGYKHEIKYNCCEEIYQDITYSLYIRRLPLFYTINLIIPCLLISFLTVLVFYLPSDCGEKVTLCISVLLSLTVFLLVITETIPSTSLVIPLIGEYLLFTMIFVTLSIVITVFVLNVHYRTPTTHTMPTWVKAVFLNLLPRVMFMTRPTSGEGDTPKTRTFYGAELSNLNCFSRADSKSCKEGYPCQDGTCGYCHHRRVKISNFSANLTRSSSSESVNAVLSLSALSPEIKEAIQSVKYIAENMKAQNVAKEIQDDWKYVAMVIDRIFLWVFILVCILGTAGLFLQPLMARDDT
# T5 sequence (P12390 25-500): as the sequence (P12390 25-500) above
# T6 sequence (P04757 26-499): as the sequence (P04757 26-499) above
# T6 sequence (P12392 21-495): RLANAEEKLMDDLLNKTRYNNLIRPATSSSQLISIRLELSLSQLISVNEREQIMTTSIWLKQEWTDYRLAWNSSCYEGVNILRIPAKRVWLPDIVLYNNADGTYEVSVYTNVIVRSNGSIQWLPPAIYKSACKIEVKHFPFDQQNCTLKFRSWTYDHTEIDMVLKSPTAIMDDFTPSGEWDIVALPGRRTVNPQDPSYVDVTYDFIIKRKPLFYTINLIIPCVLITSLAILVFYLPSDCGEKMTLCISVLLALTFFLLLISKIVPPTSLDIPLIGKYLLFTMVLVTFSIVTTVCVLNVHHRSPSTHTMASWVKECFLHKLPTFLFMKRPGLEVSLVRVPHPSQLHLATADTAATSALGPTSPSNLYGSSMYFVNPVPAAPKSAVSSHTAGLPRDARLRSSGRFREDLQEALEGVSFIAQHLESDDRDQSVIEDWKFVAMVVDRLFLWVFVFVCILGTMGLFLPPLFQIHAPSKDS
# T1 sequence (P09483 31-630): as the sequence (P09483 31-630) above
# T1 sequence (P12390 25-500): as the sequence (P12390 25-500) above
# Chain of alpha4-beta2 receptors (P09483 31-630): as the sequence (P09483 31-630) above
# Chain of alpha4-beta2 receptors (P12390 25-500): as the sequence (P12390 25-500) above
smiles,measurement,setting,value
"Ic1cncc(OC[C@@H]2C=CCN2)c1 [Niodene, 3-iodo-5-[2-(S)-3-pyrrolinylmethoxy]pyridine]",pKi,rat brain α4β2 receptors,9.57
same,displacement of 18F-nifene bound to α4β2 receptors,α4β2 receptor [1],> 95%
[123I]c1cncc(OCC2C=CCN2)c1 (centres unmarked) [^123I-niodene],cortex to cerebellum binding ratio,α4β2 receptor [2],1.6
same,thalamus to cerebellum binding ratio,α4β2 receptor [2],4
"[18F]c1ncc(I)cc1OC[C@@H]1C=CCN1 [18F-Niofene, 2-^18F-5-iodo-3-[2-(S)-3,4-dehydropyrrolinylmethoxy]pyridine]",TH/CB at pseudoequilibrium,α4β2 nAChRs [3],> 2
"[18F]CCCc1cncc(OC[C@@H]2CCCN2)c1 [18F-nifrolidine, 5-(3-18F-fluoropropyl)-3-(2-(S)-pyrrolidinylmethoxy)pyridine]",binding in cerebellum as % of that found in the AV,α4β2 receptor sites; horizontal rat brain slices,approximately 8%
same,order of binding in brain regions,α4β2 receptor sites; horizontal slices,thalamus>Ctx>striata>cerebellum
same,"Thalamus-to-cerebellum ratio, Control","α4β2 receptor [4]; rat, 2 min",1.30
same,"Thalamus-to-cerebellum ratio, Control","α4β2 receptor [4]; rat, 60 min",3.08
same,"Thalamus-to-cerebellum ratio, Before nicotine","α4β2 receptor [4]; rat, 60 min, nicotine ditartarate 10 mg/kg s.c. 5 min before 18F-nifrolidine",1.8
same,"Thalamus-to-cerebellum ratio, Control","α4β2 receptor [4]; rat, 120 min",1.40
same,% ID/g Blood,"α4β2 receptor [4]; rat, 2 min",0.25 % ID/g
same,% ID/g Cerebellum,"α4β2 receptor [4]; rat, 2 min",0.24 ± 0.03 % ID/g
same,% ID/g Cortex,"α4β2 receptor [4]; rat, 2 min",0.21 ± 0.04 % ID/g
same,% ID/g Thalamus,"α4β2 receptor [4]; rat, 2 min",0.26 ± 0.05 % ID/g
same,% ID/g Blood,"α4β2 receptor [4]; rat, 2 min, listed as 18F-NIFROLIDINE",0.25 ± 0.09 % ID/g
same,% ID/g Blood,"α4β2 receptor [4]; rat, 60 min",0.14 ± 0.03 % ID/g
same,% ID/g Cerebellum,"α4β2 receptor [4]; rat, 60 min",0.12 ± 0.02 % ID/g
same,% ID/g Cortex,"α4β2 receptor [4]; rat, 60 min",0.25 ± 0.03 % ID/g
same,% ID/g Thalamus,"α4β2 receptor [4]; rat, 60 min",> 0.3 % ID/g
same,% ID/g Thalamus,"α4β2 receptor [4]; rat, 60 min, listed as 18F-NIFROLIDINE",0.37 ± 0.07 % ID/g
same,% ID/g Blood,"α4β2 receptor [4]; rat, 120 min",< 0.03 % ID/g
same,% ID/g Cerebellum,"α4β2 receptor [4]; rat, 120 min",0.10 ± 0.02 % ID/g
same,% ID/g Cortex,"α4β2 receptor [4]; rat, 120 min",0.13 ± 0.04 % ID/g
same,% ID/g Thalamus,"α4β2 receptor [4]; rat, 120 min",0.14 ± 0.03 % ID/g
same,% ID/g Blood,"α4β2 receptor [4]; rat, 120 min, listed as 18F-NIFROLIDINE",0.04 ± 0.01 % ID/g
same,blood-brain barrier penetration,"α4β2 receptor [4]; rodents, in vivo",able to cross the blood-brain barrier
same,vital signs,"α4β2 receptor [5]; anesthetized rhesus monkey, 155 MBq",did not exhibit any unusual deviations from the baseline values
same,time of maximal binding in the thalamus following injection,α4β2 receptor [5]; rhesus monkey PET,> 70 min
same,time to approach transient equilibrium,α4β2 receptor [5]; rhesus monkey PET,about 2.5 hrs
same,time to plateauing of the thalamus-to-Cb ratio,α4β2 receptor [5]; rhesus monkey PET,150 min
same,selective maximal uptake in AVT and AMT,α4β2 receptor [5]; [10],0.011 % ID/mL
same,uptake in VLT,α4β2 receptor [5]; [10],0.10 % ID/mL
same,ratio between the thalamus and the Cb,"α4β2 receptor [5]; rhesus monkey PET, about 140 min after injection",approximately 1.7
same,cortical regions to Cb ratio,"α4β2 receptor [5]; rhesus monkey PET, in 120 min",1.3
same,thalamus-to-Cb ratio (plateau),"α4β2 receptor [5]; rhesus monkey PET, in 120 min",1.7
Ic1cncc(OC[C@@H]2CCN2)c1 [5-IA85380],scanning time required,α4β2 receptors [6],over 6 hrs
"[18F]c1ncccc1OC[C@@H]1C=CCN1 [^18F-Nifene, 2-[^18F]fluoro-3-[2-(S)-pyrrolinyl-3,4-dehydromethoxy]pyridine]",reversal of binding by nicotine,alpha4-beta2 receptors,rapidly reverse
"FCCCc1cncc(OC[C@@H]2CCCN2)c1 [nifrolidine, 5-(3′-fluoropropyl)-3-(2-(S)-pyrrolidinylmethoxy)-pyridine]",pKi,α3β2 sites,< 7.52
same,pKi,α3β4 sites,< 7.52
same,affinity for α7 sites (displacement of 125I-α-bungaratoxin),α7 nAChRs,no measureable displacement and weak
same,pKi,α4β2 nAChRs [7],8.54
"Fc1ncc(I)cc1OC[C@@H]1C=CCN1 [Niofene, 2-Fluoro-5-iodo-3-[2-(S)-3,4-dehydropyrrolinylmethoxy]pyridine]",affinity,α4β2 receptors [8],subnanomolar
"[18F]c1ncccc1OC[C@@H]1CCN1 [2-FA85380, 2-18F-fluoro-3-(2(S)-azetidinylmethoxy)pyridine]",time to reach pseudoequilibrium,α4β2 nAChRs [9],4 to 6 h
